Numbers after ± are expanded uncertainties.
Legend:
[1] = Molar enthalpy of transition or fusion; settings: Crystal; DSC
[2] = Crystal; DTA

With `CC[C@H](C)[C@H]1O[C@]2(C=C[C@@H]1C)C[C@@H]1C[C@@H](C/C=C(\C)[C@@H](O[C@H]3C[C@H](OC)[C@@H](O[C@H]4C[C@H](OC)[C@@H](O)[C@H](C)O4)[C@H](C)O3)[C@@H](C)/C=C/C=C3\CO[C@@H]4[C@H](O)C(C)=C[C@@H](C(=O)O1)[C@]34O)O2` [Avermectin B1a] the “Molar enthalpy of transition or fusion” value [1] was 6.91 ± 0.153 kcal/mol and the Normal melting temperature [2] was 163.29 ± 0.61 °C.
